From patent US12098395B2, “Polypeptide with function of targeting recognition of immune cells and application thereof” (Keyangle Life Technology Co., Ltd., priority 2018, dated 2024)
No end group written: not given here. code X = not defined here

How the values were obtained:
[1] = tested on: bone marrow monocyte precursors of New Zealand White Rabbit; assay: In vitro fluorescent labeling of primary monocyte precursors of New Zealand White Rabbit; format: cell-based
Excerpt: With a similar process to Example 7, bone marrow monocyte precursors of New Zealand White Rabbit were taken and cultured, then labeled by using EK24 fluorescent probe and Nucblue. Then the cells were observed under a fluorescence microscope (20×, light source 10%, exposure 200 ms, gain 5).

[2] = tested on: macrophages on mouse abdominal wall; assay: In vivo fluorescent labeling of macrophages on mouse abdominal wall with CD68 antibody co-staining; settings: in vivo injection, abdominal wall muscle removed
Description: Referring to Example 4, using the same drug injection process, inject EK24, and FITC anti-mouse CD68 antibody (Biolegend) which was diluted with PBS from 2 μL to 500 μL. Remove mouse abdominal wall muscle for Nucblue double-staining and then observing under a fluorescence microscope (20×, light source 50%, exposure 200 ms, gain 5).

[3] = tested on: primary macrophages from rat peritoneal cavity; assay: In vitro fluorescent labeling of primary macrophages from rat peritoneal cavity; format: cell-based, SD rats; settings: cultured more than 2 days
Description: With the same process as in Example 5, extract cells from the abdominal cavity of 5 to 8 weeks old SD rats using 20 mL serum-free DMEM incomplete medium and culture the cells in a 96-well plate. After culturing for more than 2 days, until the cells attached the bottom firmly, a well was selected and added with EK24 fluorescent probe for incubation. Then the cells were observed under a fluorescence microscope (20×, light source 10%, exposure 200 ms, gain 5).

[4] = tested on: mouse macrophage cell line RAW264.7; assay: In vitro fluorescence labeled staining of a mouse macrophage cell line; format: cell-based; settings: 10 μM probe, 1 h incubation
Description: Culture the mouse macrophage cell line RAW264.7 in a 96-well plate, wash the wells once with 1×PBS buffer or a serum-free DMEM incomplete medium, remove the washing liquid, add EK24 solution of 10 μM which had been diluted with 100 μL of serum-free DMEM incomplete medium, and incubate in a cell culture incubator for 1 h. After that, wash the wells twice with 1×PBS buffer or the serum-free DMEM incomplete medium. Then, add DMEM complete medium containing 10% FBS and 1% streptomycin-penicillin, and double-stain the cells using nuclear dye Nucblue, and observe under EVOS® FL Auto fluorescence microscope (Life Technologies, light source 10%, exposure 200 ms, gain 5).

[5] = tested on: mouse peritoneal macrophages; assay: In vivo fluorescent labeling of macrophages in a mouse abdominal cavity; design: species or system Kunming mice; settings: for recognition of macrophages in vivo: conclusion from Table 1, mouse peritoneal macrophages; for fluorescent labeling of macrophages extracted from the mouse abdominal cavity: labeled in vivo by intraperitoneal injection, cells extracted after 4 hours, Nucblue double-stain
Description: Dilute 300 μL of 50 μM EK24 fluorescent probe solution with serum-free DMEM incomplete medium to obtain 1 mL of solution, then inject into the abdominal cavity of 5-8 weeks old Kunming mice. After 4 hours, inject 5 mL of 1×PBS and massage. After 10 minutes, sacrifice the mice by cervical vertebra dislocation. Cut the abdominal cavity skin of the mice, pierce the abdominal wall muscle by a syringe, and extract the fluid in the abdominal cavity of the mice. Centrifuge the extracted peritoneal fluid at 1000 rpm for 5 min, wash twice with 1×PBS. Add appropriate amount of cells to a 96-well plate and double-stain with a nuclear dye Nucblue (Invitrogen). Observe under fluorescence microscope (light source 10%, exposure 200 ms, gain 5) after the suspended cells were settled down at the bottom of the plate.
Table 1 lists probes, which contain the polypeptide fragments from the C-terminal fragments of Triokinases/FMN cyclases of different species and were prepared by a similar process as described in Examples 1 and 2, and in vivo imaging results of mouse peritoneal macrophages using these probes.

[6] = tested on: cultured peritoneal macrophages and mesenteric digestive cells; assay: Selective labeling of cultured peritoneal macrophages among cells released from enzyme-digested mesenterium; format: cell-based, Kunming mice; settings: peritoneal cells and trypsin-digested mesenteries cultured 3 days
Description: Take 5 to 8 week-old Kunming mice, inject intraperitoneally with 5 mL of serum-free DMEM incomplete medium. After 1 hour, sacrifice the mice by cervical vertebra dislocation. Make an incision on the skin of abdominal cavity, pierce the abdominal wall muscle using a syringe, and extract the fluid in the abdominal cavity of the mice. Wash twice with 1×PBS, collect peritoneal cells by centrifugation. Also take the mesenteries of the Kunming mice and purge twice with 1×PBS in centrifuge tubes. Incubate the obtained peritoneal cells and mesenteries in 0.25% trypsin solution and digest for 30 minutes. Enrich the cells by centrifugation, and then culture for 3 days in a 96-well plate using F12/DMEM culture solution containing 10% FBS and 1% streptomycin-penicillin. Referring to Example 5, label with the EK24 fluorescent probe and Nucblue. Then the cells were observed under a fluorescence microscope (20×, light source 10%, exposure 200 ms, gain 5).

[7] = tested on: monocyte precursors from rat bone marrow; assay: In vitro fluorescent labeling of rat primary monocyte precursors; format: cell-based
Excerpt: With a similar process to Example 7, mononuclear cell precursors from rat femoral bone marrow were taken and cultured, and then labeled by using EK24 fluorescent probe and Nucblue. Then the cells were observed under a fluorescence microscope (20×, light source 10%, exposure 200 ms, gain 5).

[8] = tested on: cultured macrophages isolated from mouse peritoneal cavity; assay: In vitro fluorescent labeling of cultured macrophages isolated from mouse peritoneal cavity, co-staining with F4/80 antibody; format: cell-based; settings: 10 μM EK24 premixed with F4/80 antibody, 1 h at 37° C.
Description: Inject 5 mL of serum-free DMEM incomplete medium into the abdominal cavity of 5 to 8 weeks old mice, massage the abdominal cavity gently for 10 min, and sacrifice the mice by cervical vertebra dislocation. Extract the fluid from the abdominal cavity gently with a syringe, inject into a 5 mL centrifuge tube and centrifuge at 1000 rpm for 5 min, remove the supernatant, and resuspend the collected ex-vivo cells in DMEM/F12 medium containing 10% FBS, then add into a 96-well plate for culture. Generally, if cells are taken intraperitoneally for in vitro culture, macrophages would tend to adhere to bottom of the well, and other cells would be washed off. The cells were cultured for more than 2 days until the cells attached the bottom firmly. At this time, the cells remaining in the wells were basically macrophages. Select two wells, one as a control and the other as an experimental well. The cells of the control were nuclear stained with Nucblue. The experimental well was added with a premix of AlexaFluor®488 anti-mouse F4/80 antibody (Biolegend) and EK24 fluorescent probe, and then incubated for 1 h at 37° C. The premix contained 10 μM of EK24 solution and 2 μL of Alexa Fluor®488 anti-mouse F4/80 antibody diluted with 100 μL of serum-free DMEM incomplete medium. […] The cells were observed under a fluorescence microscope (20×objective lens, light source 10%, exposure 200 ms, gain 5).

[9] = tested on: monocyte precursors from mouse bone marrow; assay: Fluorescence labeling of mouse primary monocyte precursors at different incubation times; format: cell-based; settings: incubating only for 10 min
Description: Referring to Example 7, using the same treatment process, the monocyte precursors from mouse bone marrow were obtained. After culturing for 6 days, the cultured cells were labeled with […] fluorescent probe over different incubation times. Then the cells were observed under a fluorescence microscope (20×, light source 20%, exposure 200 ms, gain 5).
Nucblue was further used for nuclear staining. In each of FIGS. 18A, 18B, 18C, and 18D, i) is an image labeled with the […] fluorescent probe (shown in red in the original fluorescence color image), and ii) is an image obtained by nuclear staining with Nucblue (shown in blue in the original fluorescence color image), and iii) is a merged image of i) and ii).

Row | Substance | recognition of macrophages in vivo [5] | fluorescent labeling of macrophages extracted from the mouse abdominal cavity [5] | other results
1 | EQPDPGAVAAAAILRAILEVLQS-Y (not fully specified (C-terminus)) [EK24, Human/rhesus Triokinase/FMN cyclase C-terminal peptide; Y is lysine plus rhodamine fluorescent labeling group on the lysine side chain] | can effectively recognize macrophages in vivo | can be labeled | labeling of monocyte precursors from New Zealand White Rabbit bone marrow mesenchyme [1]: capable of labeling; labeling of macrophages on mouse abdominal wall [2]: can be labeled; labeling of other cells of mouse abdominal wall [2]: cannot be labeled; labeling of in vitro cultured primary macrophages from rat peritoneal cavity [3]: can effectively label; fluorescent labeling of RAW264.7 cells [4]: can be labeled; staining of macrophages in mixed culture [6]: only stains macrophages; staining of non-macrophages in mixed culture [6]: not stain non-macrophages; labeling of monocyte precursors from rat bone marrow mesenchyme [7]: capable of labeling; co-localization of probe label with F4/80 antibody label [8]: co-localized on the same cells
2 | LEQPDPGAVAAAAILRAILE-Y (LEQPDPGAVAAAAILRAILEY; also: C-terminal reporter Y, nature not defined) [LEK21, Human Triokinase/FMN cyclase C-terminal peptide probe, Y = reporter or cysteine/lysine + reporter] | can effectively recognize macrophages in vivo | can be labeled | –
3 | LQPDPGAVAAAAVLRAVLEGLQG-Y (LQPDPGAVAAAAVLRAVLEGLQGY; also: C-terminal reporter Y, nature not defined) [LK24, Chicken Triokinase/FMN cyclase C-terminal peptide probe, Y = reporter or cysteine/lysine + reporter] | can effectively recognize macrophages in vivo | can be labeled | –
4 | X-DQPDPGAVAAAAIFRAILEVLQTKAA ({code X}-DQPDPGAVAAAAIFRAILEVLQTKAA; reading uncertain; also: N-terminal reporter X, nature not defined) [r-KA27, Rat Triokinase/FMN cyclase C-terminal peptide probe, X = reporter or cysteine/lysine + reporter] | can effectively recognize macrophages in vivo | can be labeled | –
5 | X-DQPDPGAVAAAAILRAILEVLQSQGA ({code X}-DQPDPGAVAAAAILRAILEVLQSQGA; reading uncertain; also: N-terminal reporter X, nature not defined) [b-KA27, Pig and cattle Triokinase/FMN cyclase C-terminal peptide probe, X = reporter or cysteine/lysine + reporter] | can effectively recognize macrophages in vivo | can be labeled | –
6 | X-DQPDPGAVAAAAILRTILEVLQSQGV ({code X}-DQPDPGAVAAAAILRTILEVLQSQGV; reading uncertain; also: N-terminal reporter X, nature not defined) [d-KV27, Dog Triokinase/FMN cyclase C-terminal peptide probe, X = reporter or cysteine/lysine + reporter] | can effectively recognize macrophages in vivo | can be labeled | –
7 | X-EDQPDPGAVAAAAILRAILEVLQS ({code X}-EDQPDPGAVAAAAILRAILEVLQS; reading uncertain; also: N-terminal reporter X, nature not defined, printed as X-EDQPDPGAVAAAAILRAILEVLQS) [KS24, Human Triokinase/FMN cyclase C-terminal peptide probe, X = reporter or cysteine/lysine + reporter (rhodamine or FITC)] | can effectively recognize macrophages in vivo | can be labeled | fluorescence detection with microscope [9]: can be even detected
8 | X-KNMEAGAGRASYISSARLEQPDPGAVAAAAILRAIL ({code X}-KNMEAGAGRASYISSARLEQPDPGAVAAAAILRAIL; reading uncertain; also: N-terminal reporter X, nature not defined) [KnNL36, Human Triokinase/FMN cyclase C-terminal peptide probe, X = reporter or cysteine/lysine + reporter] | can effectively recognize macrophages in vivo | can be labeled | –
9 | X-TKNMEAGAGRASYISSARLEQPDPGAVAAAAILRAILEVLQS ({code X}-TKNMEAGAGRASYISSARLEQPDPGAVAAAAILRAILEVLQS; reading uncertain; also: N-terminal reporter X, nature not defined) [TS42, Human Triokinase/FMN cyclase C-terminal peptide probe, X = reporter or cysteine/lysine + reporter] | can effectively recognize macrophages in vivo | can be labeled | –
